According to article PMC5078989, “Targeted inhibition of the COP9 signalosome for treatment of cancer” (Nature Communications, 2016):

System: panel of cancer cell lines
Test: Cell viability (CellTiter-Glo) dose-response across cancer cell line panel;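 as to EC50: after 72 h compound incubation with CellTiter-Glo ATP readout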
Assay type: cell-based, human
Settings: for EC50: Homo sapiens
Excerpt: Next, we explored the effect of CSN5 inhibition on the viability of cancer cells. To obtain a comprehensive picture, we generated dose–response curves with a CSN5 inhibitor across more than 500 cancer cell lines in a previously described standardized setting[47] (Supplementary Data 1).
A standardized CellTiter-Glo Assay (Promega #G7570) based on the quantification of ATP was applied according to the manufacturer's protocol to measure the amount of viable cells in culture. In brief, cells were seeded into 384-well plates at optimal density for each cell line. After 4 h, compounds were added at different concentrations in growth medium and incubated for another 72 h in a humidifying chamber at 37 °C and 5% CO2. […] EC50 values were calculated from the plot of percentage of inhibition versus inhibitor concentration using the nonlinear regression analysis software Origin 7.5SR6 (OriginLab Corp.).

## COCc1ccccc1NCc1ccc([C@@H]2[C@H](O)CCCc3cncn32)c(-c2ccccc2Cl)c1 [CSN5i-2e, (5R,6R)-5-(2′-chloro-5-(((2-(methoxymethyl)phenyl)amino)methyl)-[1,1′-biphenyl]-2-yl)-6,7,8,9-tetrahydro-5H-imidazo[1,5-a]azepin-6-ol]
SNU-685 cells
  EC50: > 30 µM
SNU-738 cells
  EC50: 14.6 µM
SNU-761 cells
  EC50: 11.3 µM
SNU-1040 cells
  EC50: 18.9 µM
SNU-1079 cells
  EC50: 13.1 µM
SNU-C1, SNU-C1 cells
  EC50: 17.8 µM
SNU-C2A cells
  EC50: 10.7 µM
SNU-C4, SNU-C4 cells
  EC50: 13.7 µM
SNU-C5 cells
  EC50: 8.36 µM
SR-786, SR-786 cells
  EC50: 11.4 µM
SU-DHL10, SU-DHL-10 cells
  EC50: 5.76 µM
SU-DHL-4, SU-DHL-4 cells
  EC50: 10.9 µM
SU-DHL-5, SU-DHL-5 cells
  EC50: 4.35 µM
SU-DHL-6, SU-DHL-6 cells
  EC50: 6.01 µM
SU-DHL-8, SU-DHL-8 cells
  EC50: 6.55 µM
SU.86.86, SU.86.86 cells
  EC50: 10.8 µM
SUM44PE cells
  EC50: 26.1 µM
SUM52PE, SUM52PE cells
  EC50: 3.38 µM
SUM149PT, SUM149PT cells
  EC50: 10.6 µM
SUM-159-PT, SUM159PT cells
  EC50: 11.1 µM
SUP-T1, SUP-T1 cells
  EC50: 10.1 µM
SW48, SW48 cells
  EC50: 12.2 µM
SW480, SW480 cells
  EC50: 9.61 µM
SW982, SW982 cells
  EC50: 11.4 µM
SW1088, SW 1088 cells
  EC50: 10.6 µM
SW1271, SW 1271 cells
  EC50: 18.7 µM
SW1573, SW 1573 cells
  EC50: 9.37 µM
SW1783, SW 1783 cells
  EC50: > 30 µM
SW-403, SW403 cells
  EC50: 23.8 µM
SW-620, SW620 cells
  EC50: 21.8 µM
SYO-1 cells
  EC50: 11.2 µM
Sq-1 cells
  EC50: 11.8 µM
T3M4, T3M-4 cells
  EC50: 18.8 µM
T47D, T-47D cells
  EC50: 7.39 µM
TANOUE cells
  EC50: 6.4 µM
TC-71, TC-71 cells
  EC50: 9.61 µM
TCC-PAN2 cells
  EC50: 28.9 µM
TE-6, TE-6 cells
  EC50: 14 µM
TE-11, TE-11 cells
  EC50: 10.7 µM
TE-15, TE-15 cells
  EC50: 15.1 µM
TF-1, TF-1 cells
  EC50: 8.75 µM
THP-1, THP-1 cells
  EC50: 5.46 µM
TYK-nu cells
  EC50: 10.6 µM
U266B1 cells
  EC50: 9.53 µM
U-118-MG, U-118 MG cells
  EC50: 25.3 µM
U-937, U-937 cells
  EC50: 7.39 µM
UACC-62, UACC-62 cells
  EC50: 13.9 µM
UACC-257, UACC-257 cells
  EC50: 11.2 µM
UCH1, UCH-1 cells
  EC50: 14.7 µM
UKE1, UKE1 cells
  EC50: 9.11 µM
VM-CUB-1, VM-CUB1 cells
  EC50: 4.45 µM
VMRC-LCD cells
  EC50: 11 µM
VMRC-RCW cells
  EC50: 11.9 µM
WM 266-4, WM-266-4 cells
  EC50: 17.1 µM
WM983B, WM-983B cells
  EC50: 9.66 µM
WM-88 cells
  EC50: 13.6 µM
WM-115, WM-115 cells
  EC50: 7.37 µM
WSU-WM cells
  EC50: 7.7 µM
YAPC, YAPC cells
  EC50: 11.5 µM
Hs 695T cells
  AMAX: -86.8488
Hs 936.T cells
  AMAX: -93.4541
HuG1-N cells
  AMAX: -87.0263
HuH-7 cells
  AMAX: -97.6516
IGR-37 cells
  AMAX: -77.0355
IGROV1 cells
  AMAX: -71.2355
IPC-298 cells
  AMAX: -72.365
Ishikawa cells
  AMAX: -88.4272
J82 cells
  AMAX: -35.798
JHH-4 cells
  AMAX: -90.0924
JHOS-2 cells
  AMAX: -45.7705
JHUEM-2 cells
  AMAX: -96.4199
JHUEM-3 cells
  AMAX: -54.8666
JL-1 cells
  AMAX: -68.6834
JVM-2 cells
  AMAX: -97.127
KARPAS-422 cells
  AMAX: -93.641
KATO III cells
  AMAX: -77.3764
KBM-7 cells
  AMAX: -97.1328
KE-97 cells
  AMAX: -93.3813
KMRC-1 cells
  AMAX: -75.0974
KP-1N cells
  AMAX: -76.285
KP-2 cells
  AMAX: -93.6503
KP-3 cells
  AMAX: -72.8527
KU-19-19 cells
  AMAX: -88.0441
KYSE-150 cells
  AMAX: -68.4693
KYSE-180 cells
  AMAX: -91.1186
Kasumi3 cells
  AMAX: -95.9336
L-363 cells
  AMAX: -92.1173
LC2/ad cells
  AMAX: -70.6199
LCLC-103H cells
  AMAX: -71.5681
MFE-280 cells
  AMAX: -75.2715
MM138 cells
  AMAX: -91.9111
MM415 cells
  AMAX: -83.1051
MM426 cells
  AMAX: -57.5258
MM485 cells
  AMAX: -82.1717
MM537 cells
  AMAX: -84.9338
MOLT-16 cells
  AMAX: -96.4687
MeWo cells
  AMAX: -73.0371
NB-1 cells
  AMAX: -97.6901
NCI-H82 cells
  AMAX: -96.2323
NCI-H146 cells
  AMAX: -95.028
NCI-H322 cells
  AMAX: -82.8728
NCI-H441 cells
  AMAX: -78.9188
NCI-H810 cells
  AMAX: -2.884
NCI-H841 cells
  AMAX: -94.3751
NCI-H1373 cells
  AMAX: -93.5484
NCI-H1568 cells
  AMAX: -98.9282
NCI-H1755 cells
  AMAX: -88.1389
NCI-H2023 cells
  AMAX: -87.7102
NCI-H2087 cells
  AMAX: -85.0078
NCI-H2452 cells
  AMAX: -48.2134
ONCO-DG-1 cells
  AMAX: -95.499
OUMS-23 cells
  AMAX: -91.7164
OV56 cells
  AMAX: -92.0115
P3HR-1 cells
  AMAX: -92.6521
P12-ICHIKAWA cells
  AMAX: -96.1728
PA-TU-8988T cells
  AMAX: -59.6796
PANC-1 cells
  AMAX: -78.7196
PC-3 cells
  AMAX: -66.4355
PE/CA-PJ49 cells
  AMAX: -89.0883
PF-382 cells
  AMAX: -96.9256
Panc 03.27 cells
  AMAX: -56.1495
Panc 04.03 cells
  AMAX: -74.9732
Panc 10.05 cells
  AMAX: -81.9961
RD-ES cells
  AMAX: -95.6768
RT-112 cells
  AMAX: -70.4236
SEM cells
  AMAX: -91.5844
SF-268 cells
  AMAX: -46.326
SK-ES-1 cells
  AMAX: -87.9534
SK-MEL-3 cells
  AMAX: -63.3656
